Assay results reported in patent US20230136702A1, “Inhibitors of Human Herpesviruses” (The Governors of the University of Alberta, priority 2020, published 2023).

Assays:
[1] = Cytotoxicity in MRC5 cells without virus infection (CCK8); format: cell-based; conditions: human
Protocol: (§1) Exemplary compounds (e.g., as described herein) were prepared as 20 mM stock solutions with DMSO. Reference compound was ganciclovir (Sigma). Compounds were tested at 8 concentrations, 3-fold serial dilutions, in duplicate for EC50 and CC50 determinations. The highest testing concentrations of the exemplary compounds and reference compound were 40 μM and 100 μM, respectively. The final concentration of DMSO in the cell culture was 0.5%.
(§2) MRC5 cells (ATCC CCL-171) was obtained from the ATCC and maintained in the EMEM (Sigma) supplemented with 10% FBS (HyClone), 1% L-glutamine (Gibco), 1% NEAA (Gibco), and 1% PS (Hyclone). Reagent:
Cytotoxicity of the compounds was assessed under the same conditions, but without virus infection, in parallel. Cell viability was measured with CCK8 following the manufacturer's manual. CC50 values were then calculated based on cytotoxicity at the test concentrations normalized by the medium control (medium only).
(§3) Antiviral activity and cytotoxicity of the compounds were expressed as % Inhibition and % Viability, respectively, and calculated with the formulas below:
Viability (%)=(Raw dataCPD−AverageMC)/(AverageCC−AverageMC)*100
(§4) Raw dataCPD indicates the values of the compound-treated wells; AverageVC, AverageCC and AverageMC indicate the average values of the virus control (cells infected with virus, without compound treatment), cell control and medium control wells, respectively.
(§5) EC50 and CC50 values were calculated using the GraphPad Prism software.

hERG potassium channel = target: T1, hERG potassium channel (Homo sapiens, UniProt Q12809); test: Inhibition of hERG potassium channel, automated patch clamp (SyncroPatch 384PE) in CHO cells; format: cell-based; conditions: CHO cells stably expressing hERG, room temperature, 0.494-40.00 μM; read-out: CHO-hERG Activity Range
T1 construct: host or cells: CHO cells stably expressing hERG
Protocol: This automated patch clamp method (SyncroPatch 384PE) CHO cells stably expressing hERG potassium channels from Sophion Biosciences were used for this test.
The cells were cultured in a humidified and air-controlled (5% C02) incubator at 37° C.
The CHO cells which were at least two days after plating and more than 75% confluent would be used for experiments. Before testing, cells were harvested using TrypLE and resuspended in the physiological solution at the room temperature.
For the electrophysiological recordings the following solutions were used (Table 5). The physiological solution and external solution were prepared at least one month. The intracellular solution was prepared in batches aliquoted, and stored at 4° C. until used.
Exemplary compounds (e.g., as described herein) were dissolved in 100% DMSO to obtain stock solutions for different test concentrations. Then the stock solutions were further diluted into external solution to achieve final concentrations for testing. Visual check for precipitation was conducted before testing. Final DMSO concentration in external solution was not more than 0.30% for the compounds.
From this holding potential of −80 mV, the voltage was first stepped to −50 mV for 80 ms for leak subtraction, and then stepped to +20 mV for 4800 ms to open hERG channels. After that, the voltage was stepped back down to −50 mV for 5000 ms, causing a “rebound” or tail current, which was measured and collected for data analysis. Finally, the voltage was stepped back to the holding potential (−80 mV, 1000 ms). This voltage command protocol was repeated every 20000 msec. This command protocol was performed continuously during the test (vehicle control and test compound).
hERG SyncroPatch assay was conducted at room temperature. The Setup, Prime Chip, Catch and Seal Cells, Amplifier Settings, Voltage and Application Protocols were established with Biomek Software (Nanion).
One addition of 40 μL of the vehicle was applied, followed by 300s for a baseline period. Then the doses of exemplary test compounds were added with 40 μL. The exposure of test compound at each concentration was no less than 300s. […] Five concentrations (0.494 μM, 1.48 μM, 4.44 μM, 13.33 μM and 40.00 μM) were tested for each compound. Minimum 2 replicates per concentration were obtained.
Within each well recording, percent of control values were calculated for each test compound concentration current response based on peak current in presence of reference control (current response/peak current)×100%. The Dose-Response curves were fit to the standard Hill equation as shown below:
Ipost cpd/Ipre cpd=Bottom+(Top−Bottom)/(1+10^((Log IC50−X)*HillSlope))
Where X is the logarithm of concentration, Ipost cpd/Ipre cpd is the normalized peak current amplitude, Top is 1 and Bottom is equal to 0.
Curve-fitting and IC50 calculations were performed by GraphPad Prism 5.0. If the inhibition obtained at the lowest concentration tested was over 50%, or at the highest concentration tested was less than 50%, we reported the IC50 as less than lowest concentration, or higher than highest concentration, respectively.

[2] = target: T2, HCMV DNA polymerase (UL54) (Human cytomegalovirus, UniProt P08546); test: HCMV DNA polymerase enzyme inhibition assay (ProFoldin, fluorescence); format: biochemical; conditions: 37° C., duplicate, max 40 μM
T2 construct: 6His (C); made in house; host or cells: Sf9 insect cells (baculovirus, pFastBac)
Protocol: The HCMV DNA polymerase assay was developed by ProFoldin. The assay detects the formation of DNA from the DNA polymerase reaction in the presence of a DNA template, dATP and dGTP. The formation of the DNA is detected by using a fluorescence method. The fluorescence intensity increases when DNA is generated by the enzyme reaction.
A time-course experiment was performed aside the enzyme inhibition assay to ensure the assay was sensitive to the enzyme inhibition. The wells for the time-course experiment contained 1 μL of DMSO and the same reaction mixture as that in the enzyme inhibition assay. The time-course data varied between plates. The reactions were stopped when the fluorescence reached a value of about 3700 for each plate.
Exemplary solid compounds (e.g., as described herein) were dissolved in DMSO to make […] stock solutions. PFA (phosphonoformic acid or phosphonomethanoic acid) was used as a positive control. The compound mother plates were prepared at 50× concentrated compound concentrations with a 2-fold serial dilution. All the exemplary compounds except PFA were diluted in DMSO. PFA was diluted in water. The maximum compound concentration was 2 mM that gave the final concentration of 40 μM in the assay. One microliter of the 50× stock solutions was transferred into the assay plates. Three copies of assay plates were prepared, two for HCMV DNA polymerase assay and one for compound background control.
The following is the protocol for enzyme inhibition performed at 37° C.:
1. Prepared a premix composed of 35347 μL of H2O, 5220 μL of 10× assay buffer and 149 μL of 350×HCMV DNA polymerase.
2. Added 39 μL of the premix into the wells with 1 μL of the compound. Incubated the mixture for at least 5 min.
3. Added 10 μL of 5×dNTP (0.1 mM), 5×DNA template solutions into each well and incubated the solution until the fluorescence value reached a value about 3700 for the DMSO-only control wells.
4. Added 50 μL of the 1× dye into the wells.
5. Read the fluorescence at emission wavelength of 535 nm and excitation wavelength of 485 nm.
For the compound background reading, added 99 μL of water in the wells with 1 μL of compounds and read the fluorescence. […] The 0% inhibition value F0 was from the wells with DMSO (no inhibitor).
The background values were subtracted from the fluorescence reading to get the net fluorescence values. The net fluorescence values were used for calculation of the percentage inhibition.
The assay was performed in duplicate for the test article at […], 1.25, 0.625, 0.313, 0.156 and 0.078 μM. The IC50 curves were obtained by fitting the percentage inhibition values with the compound concentrations using Prism GraphPad software.

[3] = test system: HCMV US3-6-EGFP-HCMV-AD169 strain; test: In vitro inhibitory (antiviral) activity against HCMV, GFP reporter in MRC5 cells; format: cell-based, Human cytomegalovirus (HCMV); conditions: Human betaherpesvirus 5, AD169, MRC5, 96 h, read-out: HCMV Antiviral EC50 range
Protocol: as §1
HCMV US3-6-EGFP-HCMV-AD169 strain was obtained from Institute Pasteur of Shanghai, CAS. The virus contains GFP as a reporter of the viral replication.
as §2
In 96-well plates, MRC5 cells were seeded at 20,000 cells per well and cultured at 37° C. and 5% C02 overnight. Next day, compounds (8 concentrations, 3-fold dilutions, in duplicate) and US3-6-EGFP-HCMV-AD169 (MOI=0.1) were added to the cells. The resulting cultures were incubated at 37° C. and 5% C02 for 4 days. Fluorescence intensity was determined by Acumen Cellista (TTP LabTech). The antiviral activity of each compound was calculated based on the inhibition of expression of GFP at each concentration normalized by the cell control (cells without virus infection or compound treatment).
as §3
Inhibition (%)=100−(Raw dataCPD−AverageCC)/(AverageVC−AverageCC)*100
as §4, §5

T2 sequence (P08546 whole entry): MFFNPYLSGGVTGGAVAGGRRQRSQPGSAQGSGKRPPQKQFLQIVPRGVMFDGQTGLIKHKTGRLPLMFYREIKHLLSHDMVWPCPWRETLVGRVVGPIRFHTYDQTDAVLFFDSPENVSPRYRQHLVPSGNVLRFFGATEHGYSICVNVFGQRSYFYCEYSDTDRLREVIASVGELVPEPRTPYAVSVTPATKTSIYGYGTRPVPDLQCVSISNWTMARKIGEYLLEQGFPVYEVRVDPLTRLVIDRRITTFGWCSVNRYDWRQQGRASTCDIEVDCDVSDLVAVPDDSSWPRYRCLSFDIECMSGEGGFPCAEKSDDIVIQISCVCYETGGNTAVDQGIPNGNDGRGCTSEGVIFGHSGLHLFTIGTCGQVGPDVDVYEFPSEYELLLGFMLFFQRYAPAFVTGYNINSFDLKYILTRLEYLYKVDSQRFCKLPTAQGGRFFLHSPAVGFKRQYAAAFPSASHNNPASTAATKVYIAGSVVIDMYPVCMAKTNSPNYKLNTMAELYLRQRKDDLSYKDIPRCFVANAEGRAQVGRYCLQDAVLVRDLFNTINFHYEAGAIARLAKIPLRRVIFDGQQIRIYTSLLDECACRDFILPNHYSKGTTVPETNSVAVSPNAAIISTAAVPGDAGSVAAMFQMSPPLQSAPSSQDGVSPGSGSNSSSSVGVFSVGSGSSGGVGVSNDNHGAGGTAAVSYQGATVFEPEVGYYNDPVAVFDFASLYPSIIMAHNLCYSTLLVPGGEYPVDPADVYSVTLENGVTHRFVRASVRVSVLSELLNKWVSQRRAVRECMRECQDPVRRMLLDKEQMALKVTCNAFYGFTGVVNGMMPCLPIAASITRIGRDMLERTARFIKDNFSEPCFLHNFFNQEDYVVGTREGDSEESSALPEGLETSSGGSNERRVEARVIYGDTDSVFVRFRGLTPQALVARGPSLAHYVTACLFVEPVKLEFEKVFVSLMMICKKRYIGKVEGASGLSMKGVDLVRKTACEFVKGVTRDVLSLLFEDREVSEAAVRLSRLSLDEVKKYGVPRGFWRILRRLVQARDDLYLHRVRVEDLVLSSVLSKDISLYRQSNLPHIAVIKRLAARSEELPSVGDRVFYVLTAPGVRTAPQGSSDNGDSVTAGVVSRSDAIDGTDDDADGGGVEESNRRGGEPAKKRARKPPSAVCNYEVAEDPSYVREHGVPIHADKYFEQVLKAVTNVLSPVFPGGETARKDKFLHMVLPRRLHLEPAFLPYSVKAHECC
T1 sequence (Q12809 whole entry): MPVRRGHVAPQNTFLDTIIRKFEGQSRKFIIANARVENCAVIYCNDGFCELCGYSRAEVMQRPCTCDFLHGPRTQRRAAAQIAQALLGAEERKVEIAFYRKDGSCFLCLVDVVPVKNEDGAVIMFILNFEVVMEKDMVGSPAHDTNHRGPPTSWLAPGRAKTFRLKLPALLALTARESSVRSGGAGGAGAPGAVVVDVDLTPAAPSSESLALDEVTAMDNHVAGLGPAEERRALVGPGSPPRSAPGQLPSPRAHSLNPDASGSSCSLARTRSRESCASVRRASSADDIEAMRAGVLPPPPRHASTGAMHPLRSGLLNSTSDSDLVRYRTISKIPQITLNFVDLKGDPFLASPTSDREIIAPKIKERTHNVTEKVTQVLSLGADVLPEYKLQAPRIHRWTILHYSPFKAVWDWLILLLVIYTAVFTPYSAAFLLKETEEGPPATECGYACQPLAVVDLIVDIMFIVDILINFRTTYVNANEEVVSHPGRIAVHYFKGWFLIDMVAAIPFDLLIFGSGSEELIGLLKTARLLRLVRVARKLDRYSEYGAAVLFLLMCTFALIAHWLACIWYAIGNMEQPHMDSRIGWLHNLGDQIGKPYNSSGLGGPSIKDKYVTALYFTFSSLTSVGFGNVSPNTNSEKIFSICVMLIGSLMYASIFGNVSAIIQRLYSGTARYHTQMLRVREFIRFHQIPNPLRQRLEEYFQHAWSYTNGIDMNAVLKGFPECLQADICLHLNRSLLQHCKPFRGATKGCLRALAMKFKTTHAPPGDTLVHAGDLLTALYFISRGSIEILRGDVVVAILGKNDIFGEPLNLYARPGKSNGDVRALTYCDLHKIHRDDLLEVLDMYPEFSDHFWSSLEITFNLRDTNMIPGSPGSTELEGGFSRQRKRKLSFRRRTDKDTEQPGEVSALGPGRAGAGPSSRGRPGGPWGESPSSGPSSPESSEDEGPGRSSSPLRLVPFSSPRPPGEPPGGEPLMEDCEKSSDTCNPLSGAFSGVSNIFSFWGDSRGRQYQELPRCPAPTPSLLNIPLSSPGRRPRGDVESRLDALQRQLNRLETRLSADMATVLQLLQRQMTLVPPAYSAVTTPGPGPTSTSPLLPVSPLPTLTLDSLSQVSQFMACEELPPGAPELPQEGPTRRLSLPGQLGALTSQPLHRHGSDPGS

Structure (SMILES) | CC50 at 4 days [1] | IC50 (hERG potassium channel) | IC50 [2] | EC50 [3]
CC1(F)CN(C(=O)Cn2c(=O)c(C(=O)NCc3ccc(Cl)cc3)cc3nc(N4CCCC4=O)cnc32)C1 [Compound 1, N-[(4-chlorophenyl)methyl]-5-[2-(3-fluoro-3-methylazetidin-1-yl)-2-oxoethyl]-6-oxo-2-(2-oxopyrrolidin-1-yl)-5,6-dihydropyrido[2,3-b]pyrazine-7-carboxamide] | < 20 µM | > 10 µM | < 1 µM | < 1 µM
CC1(F)CN(C(=O)Cn2c(=O)c(C(=O)NCc3ccc(Cl)cc3)cc3nc(N4CCOC4=O)cnc32)C1 [Compound 2, N-[(4-chlorophenyl)methyl]-5-[2-(3-fluoro-3-methylazetidin-1-yl)-2-oxoethyl]-6-oxo-2-(2-oxo-1,3-oxazolidin-3-yl)-5,6-dihydropyrido[2,3-b]pyrazine-7-carboxamide] | < 40 µM | < 10 µM | < 1 µM | < 1 µM
CN1CCN(c2cnc3c(cc(C(=O)NCc4ccc(Cl)cc4)c(=O)n3CC(=O)N3CC(C)(F)C3)n2)C1=O [Compound 3, N-[(4-chlorophenyl)methyl]-5-[2-(3-fluoro-3-methylazetidin-1-yl)-2-oxoethyl]-2-(3-methyl-2-oxoimidazolidin-1-yl)-6-oxo-5,6-dihydropyrido[2,3-b]pyrazine-7-carboxamide] | > 40 µM | > 10 µM | < 1 µM | < 1 µM
CC1CCN(c2cnc3c(cc(C(=O)NCc4ccc(Cl)cc4)c(=O)n3CC(=O)N3CC(C)(F)C3)n2)C1=O (stereo not drawn) [Compound 4, N-[(4-chlorophenyl)methyl]-5-[2-(3-fluoro-3-methylazetidin-1-yl)-2-oxoethyl]-2-(3-methyl-2-oxopyrrolidin-1-yl)-6-oxo-5,6-dihydropyrido[2,3-b]pyrazine-7-carboxamide] | > 40 µM | < 10 µM | < 1 µM | < 1 µM
CC1(C)CN(C(=O)Cn2c(=O)c(C(=O)NCc3ccc(Cl)cc3)cc3nc(N4CCN(CC(=O)O)C4=O)cnc32)C1 [Compound 5, [3-(7-{[(4-chlorophenyl)methyl]carbamoyl}-5-[2-(3,3-dimethylazetidin-1-yl)-2-oxoethyl]-6-oxo-5,6-dihydropyrido[2,3-b]pyrazin-2-yl)-2-oxoimidazolidin-1-yl]acetic acid] | > 40 µM | > 10 µM | – | > 1 µM
CC1(F)CN(C(=O)Cn2c(=O)c(C(=O)NCc3ccc(Cl)cc3)cc3nc(N4CCN(CCN)C4=O)cnc32)C1 [Compound 6] | > 40 µM | > 10 µM | < 1 µM | < 1 µM
CC1(C)CN(C(=O)Cn2c(=O)c(C(=O)NCc3ccc(Cl)cc3)cc3cc(N4CCN(CC(=O)O)C4=O)cnc32)C1 [Compound 7, [3-(6-{[(4-chlorophenyl)methyl]carbamoyl}-8-[2-(3,3-dimethylazetidin-1-yl)-2-oxoethyl]-7-oxo-7,8-dihydro-1,8-naphthyridin-3-yl)-2-oxoimidazolidin-1-yl]acetic acid] | > 40 µM | > 10 µM | – | > 1 µM
CC1(F)CN(C(=O)Cn2c(=O)c(C(=O)NCc3ccc(Cl)cc3)cc3nc(N4CCNC4=O)cnc32)C1 [Compound 12, N-[(4-chlorophenyl)methyl]-5-[2-(3-fluoro-3-methylazetidin-1-yl)-2-oxoethyl]-6-oxo-2-(2-oxoimidazolidin-1-yl)-5,6-dihydropyrido[2,3-b]pyrazine-7-carboxamide] | > 40 µM | > 10 µM | < 1 µM | < 1 µM
CC1(F)CN(C(=O)Cn2c(=O)c(C(=O)NCc3ccc(Cl)cc3)cc3nc(N4CCN(CCC(=O)O)C4=O)cnc32)C1 [Compound 18, 3-[3-(7-{[(4-chlorophenyl)methyl]carbamoyl}-5-[2-(3-fluoro-3-methylazetidin-1-yl)-2-oxoethyl]-6-oxo-5,6-dihydropyrido[2,3-b]pyrazin-2-yl)-2-oxoimidazolidin-1-yl]propanoic acid] | > 40 µM | > 10 µM | < 1 µM | –
O=C(O)CN1CCN(c2cnc3c(cc(C(=O)NCc4ccc(Cl)cc4)c(=O)n3CC(=O)N3CC4(CC4)C3)n2)C1=O [Compound 20, [3-(5-[2-(5-azaspiro[2.3]hexan-5-yl)-2-oxoethyl]-7-{[(4-chlorophenyl)methyl]carbamoyl}-6-oxo-5,6-dihydropyrido[2,3-b]pyrazin-2-yl)-2-oxoimidazolidin-1-yl]acetic acid] | > 40 µM | > 10 µM | – | > 1 µM
